Experimental data as given in ChEMBL document CHEMBL3832761, “MMV Pathogen Box Bioactivity Data” (2017).
Converted amounts (≈) assume the structure as drawn.

How the values were obtained:
Format in all cases: functional
[1] = test system: Mycobacterium tuberculosis; test: AntiMycobacterium tuberculosis activity 1-week 7H9/DPPC/cholesterol/BSA/Tx MIC (uM); conditions: 168 h
[2] = test system: Mycobacterium tuberculosis; test: (§1) AntiMycobacterium tuberculosis activity day 10 in 7H9/2.5mM butyrate/pH6/0.1mM nitrite MIC90 (uM); conditions: 240 h
[3] = test system: Mycobacterium tuberculosis; test: AntiMycobacterium tuberculosis activity 1-week 7H9/cholesterol/BSA/Tx MIC (uM); conditions: 168 h
[4] = test system: Mycobacterium tuberculosis; test: AntiMycobacterium tuberculosis activity 2-week GAST/Fe MIC (uM); conditions: 336 h
[5] = test system: Mycobacterium tuberculosis; test: AntiMycobacterium tuberculosis activity Replicating form: Average MIC90 (uM)
[6] = test system: Mycobacterium tuberculosis; test: AntiMycobacterium tuberculosis activity 2-week 7H9/ADC/Tw MIC (uM); conditions: 336 h
[7] = test system: Mycobacterium tuberculosis; test: AntiMycobacterium tuberculosis activity 2-week Alamar Blue 7H9/ADC/Tw MIC (uM); conditions: 336 h
[8] = test system: Mycobacterium tuberculosis; test: AntiMycobacterium tuberculosis activity 2-week 7H9/glucose/BSA/Tx MIC (uM); conditions: 336 h
[9] = test system: Mycobacterium tuberculosis; test: AntiMycobacterium tuberculosis activity day 21 in 7H9/2.5mM butyrate/pH6/0.1mM nitrite MIC90 (uM); conditions: 504 h
[10] = test system: Mycobacterium tuberculosis; test: AntiMycobacterium tuberculosis activity 1-week 7H9/ADC/Tw MIC (uM); conditions: 168 h
[11] = test system: Mycobacterium tuberculosis; test: AntiMycobacterium tuberculosis activity day 21 MIC99 in 7H9/2.5mM butyrate/pH6/0.1mM nitrite MIC99 (uM); conditions: 504 h
[12] = test system: Mycobacterium tuberculosis; test: as §1; conditions: 240 h; remark: listed apart in the source
[13] = test system: Mycobacterium tuberculosis; test: AntiMycobacterium tuberculosis activity 1-week GAST/Fe MIC (uM); conditions: 168 h
[14] = test system: Mycobacterium tuberculosis; test: AntiMycobacterium tuberculosis activity Non-Replicating form: Average MIC90 (uM)
HepG2 = test: HepG2 CC50 (uM) Cytotoxicity; conditions: Homo sapiens
[15] = test system: Mycobacterium tuberculosis; test: AntiMycobacterium tuberculosis activity 1-week 7H9/glucose/BSA/Tx MIC (uM); conditions: 168 h
[16] = test system: Mycobacterium tuberculosis; test: AntiMycobacterium tuberculosis activity 2-week 7H9/DPPC/cholesterol/BSA/Tx MIC (uM); conditions: 336 h
[17] = test system: Mycobacterium tuberculosis; test: AntiMycobacterium tuberculosis activity 2-week Alamar Blue 7H9/cholesterol/BSA/Tx MIC (uM); conditions: 336 h

Structure (SMILES)	MIC [1]	MIC90 [2]	MIC [3]	MIC [4]	MIC90 [5]	MIC [6]	MIC [7]	MIC [8]	MIC90 [9]	MIC [10]	MIC [11]	MIC90 [12]	MIC [13]	MIC90 [14]	CC50 (HepG2)	MIC [15]	MIC [16]	MIC [17]
Cc1cc(C)cc(COc2ccc3c(C)c(CCC(=O)O)c(=O)oc3c2C)c1	50 µM (≈ 19 µg/mL)	> 50 µM	> 50 µM	9.4 µM (≈ 3.58 µg/mL)	> 100 µM	> 50 µM	> 50 µM	> 50 µM	> 50 µM	> 50 µM	> 50 µM	> 50 µM	6.25 µM (≈ 2.38 µg/mL)	> 100 µM	> 100 µM	> 50 µM	50 µM (≈ 19 µg/mL)	> 50 µM
CC(C)n1ncc2c(C(=O)NCC(c3cccs3)N3CCOCC3)cc(-c3ccccc3)nc21 (configuration not stated)	0.78 µM (≈ 0.371 µg/mL)	3.12 µM (≈ 1.48 µg/mL)	0.6 µM (≈ 0.285 µg/mL)	0.3 µM (≈ 0.143 µg/mL)	0.61 µM (≈ 0.29 µg/mL)	1.2 µM (≈ 0.571 µg/mL)	1.2 µM (≈ 0.571 µg/mL)	1.2 µM (≈ 0.571 µg/mL)	3.12 µM (≈ 1.48 µg/mL)	0.78 µM (≈ 0.371 µg/mL)	1.5 µM (≈ 0.713 µg/mL)	1.5 µM (≈ 0.713 µg/mL)	0.3 µM (≈ 0.143 µg/mL)	1.28 µM (≈ 0.609 µg/mL)	58 µM	1.2 µM (≈ 0.571 µg/mL)	0.78 µM (≈ 0.371 µg/mL)	1.56 µM (≈ 0.742 µg/mL)
CCCCOC(=O)Nc1cc2nc(C3CCCCC3)[nH]c2cc1N1CCCC1	0.15 µM (≈ 0.0577 µg/mL)	0.39 µM (≈ 0.15 µg/mL)	0.1 µM (≈ 0.0385 µg/mL)	0.15 µM (≈ 0.0577 µg/mL)	0.3 µM (≈ 0.115 µg/mL)	0.2 µM (≈ 0.0769 µg/mL)	0.2 µM (≈ 0.0769 µg/mL)	0.39 µM (≈ 0.15 µg/mL)	0.78 µM (≈ 0.3 µg/mL)	0.05 µM (≈ 0.0192 µg/mL)	0.78 µM (≈ 0.3 µg/mL)	0.78 µM (≈ 0.3 µg/mL)	0.1 µM (≈ 0.0385 µg/mL)	97.3 µM (≈ 37.4 µg/mL)	26.8 µM	0.2 µM (≈ 0.0769 µg/mL)	0.2 µM (≈ 0.0769 µg/mL)	0.2 µM (≈ 0.0769 µg/mL)
O=C(Nc1ccc(C(F)(F)F)c(C(F)(F)F)c1)c1cc(Cl)ccc1O	2.3 µM (≈ 0.882 µg/mL)	1.5 µM (≈ 0.576 µg/mL)	1.56 µM (≈ 0.599 µg/mL)	2.3 µM (≈ 0.882 µg/mL)	2.33 µM (≈ 0.894 µg/mL)	4.7 µM (≈ 1.8 µg/mL)	4.7 µM (≈ 1.8 µg/mL)	3.13 µM (≈ 1.2 µg/mL)	1.5 µM (≈ 0.576 µg/mL)	3.13 µM (≈ 1.2 µg/mL)	1.5 µM (≈ 0.576 µg/mL)	1.5 µM (≈ 0.576 µg/mL)	1.56 µM (≈ 0.599 µg/mL)	0.1 µM (≈ 0.0384 µg/mL)	0.7 µM	1.56 µM (≈ 0.599 µg/mL)	3.13 µM (≈ 1.2 µg/mL)	1.56 µM (≈ 0.599 µg/mL)
COc1cc(C(F)(F)F)nc2ccc(C)c(N)c12	4.7 µM (≈ 1.2 µg/mL)	3.12 µM (≈ 0.799 µg/mL)	2.3 µM (≈ 0.589 µg/mL)	0.6 µM (≈ 0.154 µg/mL)	> 100 µM	> 50 µM	12.5 µM (≈ 3.2 µg/mL)	> 50 µM	6.25 µM (≈ 1.6 µg/mL)	> 50 µM	> 50 µM	> 50 µM	0.2 µM (≈ 0.0512 µg/mL)	16.1 µM (≈ 4.12 µg/mL)	> 100 µM	25 µM (≈ 6.41 µg/mL)	50 µM (≈ 12.8 µg/mL)	3.13 µM (≈ 0.802 µg/mL)
CCc1ccc(S(=O)(=O)Nc2cc(CN3CCN(CCC(C)C)CC3)ccc2C)cc1	12.5 µM (≈ 5.55 µg/mL)	> 50 µM	12.5 µM (≈ 5.55 µg/mL)	25 µM (≈ 11.1 µg/mL)	45.6 µM (≈ 20.2 µg/mL)	25 µM (≈ 11.1 µg/mL)	25 µM (≈ 11.1 µg/mL)	25 µM (≈ 11.1 µg/mL)	50 µM (≈ 22.2 µg/mL)	25 µM (≈ 11.1 µg/mL)	> 50 µM	> 50 µM	19 µM (≈ 8.43 µg/mL)	89.8 µM (≈ 39.8 µg/mL)	27.4 µM	25 µM (≈ 11.1 µg/mL)	12.5 µM (≈ 5.55 µg/mL)	12.5 µM (≈ 5.55 µg/mL)
C[C@]1(COc2ccc(N3CCC(Oc4ccc(OC(F)(F)F)cc4)CC3)cc2)Cn2cc([N+](=O)[O-])nc2O1	< 0.02 µM	0.39 µM (≈ 0.208 µg/mL)	0.05 µM (≈ 0.0267 µg/mL)	0.15 µM (≈ 0.0802 µg/mL)	0.08 µM (≈ 0.0428 µg/mL)	0.15 µM (≈ 0.0802 µg/mL)	0.15 µM (≈ 0.0802 µg/mL)	0.05 µM (≈ 0.0267 µg/mL)	12.5 µM (≈ 6.68 µg/mL)	0.07 µM (≈ 0.0374 µg/mL)	> 50 µM	> 50 µM	0.1 µM (≈ 0.0534 µg/mL)	0.2 µM (≈ 0.107 µg/mL)	72.5 µM	0.2 µM (≈ 0.107 µg/mL)	0.1 µM (≈ 0.0534 µg/mL)	0.6 µM (≈ 0.321 µg/mL)
NC(=O)c1cc(-c2ccsc2)ccc1OCCOc1ccccc1	12.5 µM (≈ 4.24 µg/mL)	> 50 µM	> 50 µM	0.6 µM (≈ 0.204 µg/mL)	> 100 µM	> 50 µM	19 µM (≈ 6.45 µg/mL)	> 50 µM	> 50 µM	> 50 µM	> 50 µM	> 50 µM	0.39 µM (≈ 0.132 µg/mL)	3.96 µM (≈ 1.34 µg/mL)	> 100 µM	> 50 µM	> 50 µM	6.25 µM (≈ 2.12 µg/mL)
CCOc1ccc(OCC(=O)Nc2cc(C)cc(C)c2)cc1	50 µM (≈ 15 µg/mL)	> 50 µM	50 µM (≈ 15 µg/mL)	4.7 µM (≈ 1.41 µg/mL)	82.3 µM (≈ 24.6 µg/mL)	> 50 µM	> 50 µM	> 50 µM	> 50 µM	≥ 50 µM	> 50 µM	> 50 µM	3.13 µM (≈ 0.937 µg/mL)	65 µM (≈ 19.5 µg/mL)	> 100 µM	50 µM (≈ 15 µg/mL)	> 50 µM	> 50 µM
